Laboratory results taken from patent publication US20220144812A1, “QUINOLINE DERIVATIVES AND THEIR USE FOR THE TREATMENT OF CANCER” (Epizyme, Inc., priority 2019, published 2022).
Like-named read-outs stand apart in the source and are kept apart here.

What was measured:
CREBBP (1084-1701) = biological target: T1, CREBBP (1084-1701) (Homo sapiens, UniProt Q92793); assay: Biochemical assay for CREBBP (1084-1701), SAMDI; conditions: SAMDI, read-out: CREBBP Biochemistry IC50
T1 construct: measured in the following biochemical assay using CREBBP (1084-1701); purchased
T1 sequence (Q92793 1084-1701): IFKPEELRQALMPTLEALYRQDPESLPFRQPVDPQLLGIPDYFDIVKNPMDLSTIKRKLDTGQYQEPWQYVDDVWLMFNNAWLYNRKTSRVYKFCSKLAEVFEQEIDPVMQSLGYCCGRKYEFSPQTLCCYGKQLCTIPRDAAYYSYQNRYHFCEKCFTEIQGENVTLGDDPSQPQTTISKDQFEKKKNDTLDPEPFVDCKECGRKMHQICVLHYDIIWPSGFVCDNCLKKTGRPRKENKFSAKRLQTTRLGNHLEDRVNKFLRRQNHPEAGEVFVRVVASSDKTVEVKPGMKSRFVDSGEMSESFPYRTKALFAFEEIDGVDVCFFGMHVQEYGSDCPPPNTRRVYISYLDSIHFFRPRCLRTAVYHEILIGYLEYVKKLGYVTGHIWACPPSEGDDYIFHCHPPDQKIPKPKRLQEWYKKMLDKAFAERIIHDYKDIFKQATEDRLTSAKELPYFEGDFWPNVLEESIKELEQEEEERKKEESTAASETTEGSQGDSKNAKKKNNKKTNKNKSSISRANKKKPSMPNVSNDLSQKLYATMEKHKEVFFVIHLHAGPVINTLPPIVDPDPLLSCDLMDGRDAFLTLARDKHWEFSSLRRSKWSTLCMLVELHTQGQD
Method in brief: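 CREBBP (1084-1701) preincubated with compound 30 min at RT, then substrate mix (biotin-H3 11-25 K14R/K23R peptide, acetyl-CoA) added for 30 min at RT. Reaction stopped with formic acid, neutralised with sodium bicarbonate. Peptide acetylation read by SAMDI mass spectrometry to derive IC50.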

647V cells = assay: High throughput proliferation (HTP) assay; assay type: cell-based; conditions: high throughput proliferation, read-out: CREBBP HTP IC50
Method in brief: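 Exponentially growing 647V cells in DMEM with 15% FBS were treated in triplicate with increasing compound concentrations at 37° C, 5% CO2. Viable cell number was read by CellTiter-Glo luminescence on day 7; IC50 in micromolar.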

EP300 (P300(1048-1664)) = biological target: T2, EP300 (P300(1048-1664)) (Homo sapiens, UniProt Q09472); assay: Biochemical assay for EP300, SAMDI; conditions: EP300, SAMDI; read-out: EP300 Biochemistry IC50
T2 construct: P300(1048-1664)
T2 sequence (Q09472 1048-1664): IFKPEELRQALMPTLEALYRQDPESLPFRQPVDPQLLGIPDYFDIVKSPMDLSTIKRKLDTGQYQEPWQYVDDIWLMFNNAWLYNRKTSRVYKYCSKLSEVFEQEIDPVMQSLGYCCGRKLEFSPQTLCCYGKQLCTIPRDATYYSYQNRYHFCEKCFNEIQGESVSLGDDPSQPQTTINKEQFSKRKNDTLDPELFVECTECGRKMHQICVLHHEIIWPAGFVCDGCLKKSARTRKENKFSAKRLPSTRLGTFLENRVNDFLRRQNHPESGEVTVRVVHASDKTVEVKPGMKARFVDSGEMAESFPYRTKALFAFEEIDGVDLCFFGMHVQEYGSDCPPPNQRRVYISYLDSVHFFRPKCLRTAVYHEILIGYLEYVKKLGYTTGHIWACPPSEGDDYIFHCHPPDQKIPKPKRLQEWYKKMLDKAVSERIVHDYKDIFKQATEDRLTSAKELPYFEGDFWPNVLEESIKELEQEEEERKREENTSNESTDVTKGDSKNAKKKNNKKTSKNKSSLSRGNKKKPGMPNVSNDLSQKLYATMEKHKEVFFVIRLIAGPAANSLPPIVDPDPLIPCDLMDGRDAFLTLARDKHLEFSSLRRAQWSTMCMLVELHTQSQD
Description: The following example describes materials and methods relating to a biochemical assay for EP300. IC50 values (micromolar (μM)) are summarized in Table 1, Table 2, and Table 3 under the column labeled: “EP300 Biochemistry IC50 (micromolar).”

[1] = tested on: H3K18Ac in HB-CLS-2 cells; assay: H3K18AC in-cell western (ICW) assay; assay type: cell-based; conditions: H3K18Ac in-cell western; read-out: CREBBP ICW IC50
Method in brief: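 HB-CLS-2 cells seeded 16–24 hours before 2 hr compound treatment at 37° C, 5% CO2, then methanol-fixed. H3K18Ac detected with rabbit monoclonal primary (overnight, 4° C) and 800CW anti-rabbit secondary; DRAQ5 stained DNA. Plates imaged at 700 and 800 nm for integrated intensity; IC50 in μM.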

| SMILES | IC50 (CREBBP (1084-1701)) | IC50 (647V cells; Homo sapiens, 647-V) | IC50 (EP300 (P300(1048-1664))) | IC50 [1] | IC50 (647V cells) |
| --- | --- | --- | --- | --- | --- |
| CCn1ncc(CN(C)C(=O)c2nc(-c3cc(Cl)cc(CN4CCNCC4)c3)nc3ccc(Cl)cc23)c1C [Compound 124] | 0.37 µM | 4.1 µM | 1.4 µM | 3.9 µM | – |
| CCn1ncc(CN(C)C(=O)c2nc(-c3cn[nH]c3)nc3ccc(Cl)cc23)c1C [Compound 125] | 6.3 µM | 4.1 µM | 3.5 µM | 4 µM | – |
| CCn1ncc(CN(C)C(=O)c2nc(-c3ccc(OCCCNC(=O)OC(C)(C)C)c(OC)c3)nc3ccc(Cl)cc23)c1C [Compound 127] | 12 µM | 3.5 µM | 15 µM | 4.4 µM | – |
| CCn1ncc(CN(C)C(=O)c2nc(-c3cc(Cl)cc(OCCCNC)c3)nc3ccc(Cl)cc23)c1C [Compound 128] | 0.35 µM | 1.9 µM | 0.8 µM | 4.5 µM | – |
| CCn1ncc(CN(C)C(=O)c2cc(-n3cc(C)cn3)nc3ccc(Cl)cc23)c1C [Compound 129] | 7.4 µM | 8.3 µM | 1.4 µM | 4.6 µM | – |
| CCn1ncc(CN(C)C(=O)c2nc(-c3cccc(N)n3)nc3ccc(Cl)cc23)c1C [Compound 131] | 5.5 µM | 7.5 µM | 2.6 µM | 4.7 µM | – |
| CCn1ncc(CN(C)C(=O)c2nc(-c3ccc4[nH]nnc4c3)nc3ccc(Cl)cc23)c1C [Compound 133] | 0.1 µM | 5.9 µM | 0.47 µM | 4.9 µM | – |
| CCn1ncc(CN(C)C(=O)c2nc(-c3ccnc(NC(C)=O)c3)nc3ccc(Cl)cc23)c1C [Compound 135] | 7.5 µM | 6.7 µM | 7.1 µM | 5.1 µM | – |
| CCn1ncc(CN(C)C(=O)c2nc(-c3ccc(OCCC(=O)NC)c(OC)c3)nc3ccc(Cl)cc23)c1C [Compound 137] | 8.3 µM | 4.7 µM | 7.8 µM | 5.3 µM | – |
| CCn1ncc(CN(C)C(=O)c2cc(-c3csc(CNC)n3)nc3ccc(Cl)cc23)c1C [Compound 138] | 12 µM | – | 5.2 µM | 5.9 µM | 8.3 µM |
| CCn1ncc(CN(C)C(=O)c2nc(-c3ccc(CN4CCNCC4)c(OC)c3)nc3ccc(Cl)cc23)c1C [Compound 139] | 6.8 µM | – | 7.4 µM | 5.9 µM | 7.5 µM |
| CCn1ncc(CN(C)C(=O)c2nc(-c3ccc(OCCNC(=O)OC(C)(C)C)c(C)c3)nc3ccc(Cl)cc23)c1C [Compound 143] | 0.13 µM | – | 8.1 µM | 6.4 µM | 4.3 µM |
| CCn1ncc(CN(C)C(=O)c2nc(-c3cn(CCNC)nc3C)nc3ccc(Cl)cc23)c1C [Compound 144] | 5.4 µM | 3.3 µM | 8.9 µM | 8.4 µM | – |
| CCn1ncc(CN(C)C(=O)c2nc(-c3cccc(-c4ccn[nH]4)c3)nc3ccc(Cl)cc23)c1C [Compound 145] | 2.8 µM | – | 1.9 µM | 6.5 µM | 9.9 µM |
| CCn1ncc(CN(C)C(=O)c2cc(-c3cnc(CN(C)C)[nH]3)nc3ccc(Cl)cc23)c1C [Compound 146] | 4 µM | 10 µM | 2.3 µM | 6.5 µM | – |
| CCn1ncc(CN(C)C(=O)c2nc(-c3ccc(OCCCNC(=O)OC(C)(C)C)c(C)c3)nc3ccc(Cl)cc23)c1C [Compound 147] | 0.47 µM | – | 7.9 µM | 7 µM | 3.1 µM |
| CCn1ncc(CN(C)C(=O)c2nc(-c3ccc(OCCN(C)C(=O)OC(C)(C)C)c(OC)c3)nc3ccc(Cl)cc23)c1C [Compound 148] | 7.5 µM | 3.9 µM | 11 µM | 7.2 µM | – |
| CCn1ncc(CN(C)C(=O)c2cc(-c3cnc(CNC)[nH]3)nc3ccc(Cl)cc23)c1C [Compound 149] | 14 µM | 9.2 µM | 6.7 µM | 7.8 µM | – |
| CCn1ncc(CN(C)C(=O)c2nc(-c3ccc(OCCN(C)C(=O)OC(C)(C)C)c(Cl)c3)nc3ccc(Cl)cc23)c1C [Compound 151] | 2.2 µM | 3.2 µM | 2.8 µM | 8.8 µM | – |

| SMILES | IC50 (CREBBP (1084-1701)) | IC50 (647V cells; Homo sapiens, 647-V) | IC50 (EP300 (P300(1048-1664))) | IC50 [1] | IC50 (647V cells) |
| --- | --- | --- | --- | --- | --- |
| CCn1ncc(CN(C)C(=O)c2nc(-c3ccc(OCCNC)c(Cl)c3)nc3ccc(OC)cc23)c1C [Compound 152] | 3.6 µM | 1.6 µM | 3.6 µM | 8.9 µM | – |
| CCn1ncc(CN(C)C(=O)c2nc(-c3ccc(NC4CCNCC4)cn3)nc3ccc(Cl)cc23)c1C [Compound 153] | 0.39 µM | – | 0.35 µM | 9 µM | 4.9 µM |
| CCn1ncc(CN(C)C(=O)c2nc(-c3ccnc(NC)c3)nc3ccc(Cl)cc23)c1C [Compound 155] | 35 µM | 5 µM | 26 µM | 9.3 µM | – |
| CCn1ncc(CN(C)C(=O)c2nc(-c3ccc(C(=O)NC)cc3)nc3ccc(Cl)cc23)c1C [Compound 156] | 34 µM | 9.6 µM | 13 µM | 9.6 µM | – |
| CCCOc1ccc(-c2nc(C(=O)N(C)Cc3cnn(CC)c3C)c3cc(Cl)ccc3n2)cc1Cl [Compound 157] | 3.2 µM | – | 2.8 µM | 9.6 µM | 5.6 µM |
| CCn1ncc(CN(C)C(=O)c2nc(N3CCc4[nH]c(C)nc4C3)nc3ccc(Cl)cc23)c1C [Compound 159] | 20 µM | 10 µM | 7.7 µM | 10 µM | – |
| CCn1ncc(CN(C)C(=O)c2nc(-c3cc(C(=O)NC4CCN(C)CC4)nn3C)nc3ccc(Cl)cc23)c1C [Compound 160] | 32 µM | 5.1 µM | 20 µM | 11 µM | – |
| CCn1ncc(CN(C)C(=O)c2nc(N3CCc4cn[nH]c4C3)nc3ccc(Cl)cc23)c1C [Compound 161] | 17 µM | 11 µM | 6.2 µM | 11 µM | – |
| CCn1ncc(CN(C)C(=O)c2nc(-c3cc(C(=O)NCCCN4CCCC4)n(Cc4ccc(OC)cc4)n3)nc3ccc(Cl)cc23)c1C [Compound 163] | 62 µM | 2.7 µM | 35 µM | 12 µM | – |
| CCn1ncc(CN(C)C(=O)c2nc(-c3ccc(C(=O)NC)c(C)c3)nc3ccc(Cl)cc23)c1C [Compound 164] | 52 µM | 9.8 µM | 30 µM | 13 µM | – |
| CCn1ncc(CN(C)C(=O)c2cc(-c3ccc(OCCCO)cn3)nc3ccc(Cl)cc23)c1C [Compound 166] | 28 µM | 11 µM | 15 µM | 13 µM | – |
| CCn1ncc(CN(C)C(=O)c2nc(N3CCc4[nH]cnc4C3)nc3ccc(Cl)cc23)c1C [Compound 167] | 18 µM | 11 µM | 8 µM | 13 µM | – |
| CCn1ncc(CN(C)C(=O)c2cc(-n3cc4c(n3)CNCC4)nc3ccc(Cl)cc23)c1C [Compound 168] | 18 µM | – | 5.8 µM | 13 µM | 18 µM |
| CCn1ncc(CN(C)C(=O)c2nc(-c3cc(C(=O)NCCN4CCCC4)on3)nc3ccc(Cl)cc23)c1C [Compound 169] | 8.4 µM | 6.7 µM | 15 µM | 13 µM | – |
| CCn1ncc(CN(C)C(=O)c2nc(-c3cn(C)cn3)nc3ccc(Cl)cc23)c1C [Compound 170] | 58 µM | 6.9 µM | 13 µM | 14 µM | – |
| CCn1ncc(CN(C)C(=O)c2nc(-c3ccc(-c4ccn[nH]4)cc3)nc3ccc(Cl)cc23)c1C [Compound 171] | 8.5 µM | 7.8 µM | 3.6 µM | 14 µM | – |
| CCn1ncc(CN(C)C(=O)c2nc(-c3ccc(OCCO)cn3)nc3ccc(Cl)cc23)c1C [Compound 173] | 17 µM | 11 µM | 7.8 µM | 14 µM | – |
| CCn1ncc(CN(C)C(=O)c2nc(-c3cc(CN(C)Cc4ccc(OC)cc4)nn3C)nc3ccc(Cl)cc23)c1C [Compound 176] | 86 µM | 8.2 µM | 44 µM | 16 µM | – |
